Test results: patent US6355619B1, “Peptide tumor cell growth inhibitors” (Board of Regents, The University of Texas System, priority 1996, dated 2002)

Columns and labels:
neutrophils [1] = assay: β-glucuronidase release from neutrophils without stimulant; type: cell-based, human; conditions: without any stimulant
Protocol: (§1) FIG. 8. The Effect of Ac-RRWWCR-NH2 (SEQ ID NO:1) on β-glucuronidase Release. Neutrophils pretreated with cytochalasin B were incubated with 100 nM IL-8 (●), 100 nM fMLP (▪), 100 nM C5a (_) or 100 nM leukotriene B4 ? or without any stimulant (◯) in the presence of increasing concentration of Ac-RRWWCR-NH2 (SEQ ID NO:1) for 30 min at 37° C. β-glucuronidase activity of supernatants were measured using phenolphthalein-glucuronic acid as substrate. Analysis of variance was used for multiple comparison.
(§2) Neutrophil enzyme release was studied by a modification of the method of Goldstein and colleagues (Goldstein et al., 1973). Cytochalasin B (Sigma Chemical Co.) was stored in dimethyl sulfoxide at a concentration of 5 mg/ml and was diluted to a concentration of 50 μg/ml in Hank's Balanced Salt Solution (HBSS) immediately before use. Cytochalasin B, 200 μl, was added to 1 ml of suspension of neutrophils, 6.25×10^6 cells/ml in HBSS, to achieve a final cytochalasin B concentration of […]. The solution was then incubated in 96 well plates at room temperature for 10 min. The stimulant, 100 μl, was added, and this cell suspension was incubated for 30 min at 37° C. The plates were centrifuged and 100 μl of supernatant was removed. […] After 16 hr incubation at 37° C., 200 μl of 0.2 M Glycine in 0.2 M NaCl, pH10.4 was added to each well and OD540 was measured as the enzyme activity.

[2] = system: adenocarcinoma from stomach Hs746T; assay: Tumor cell growth, Hs746T; type: cell-based
C8161 melanoma cells = assay: Tumor cell growth, C8161; type: cell-based
IL-8 = IL-8 (Homo sapiens, UniProt P10145); assay: Interaction of the peptide with IL-8; type: binding
Chain of IL-8 (P10145 28-99): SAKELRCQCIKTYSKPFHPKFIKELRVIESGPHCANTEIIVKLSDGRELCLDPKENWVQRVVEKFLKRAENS

WM115 melanoma cells = assay: Tumor cell growth, WM115; type: cell-based
[3] = system: adenocarcinoma from breast tissue MCF-7; assay: Tumor cell growth, MCF-7; type: cell-based
[4] = system: NCI-H292 (squamous cell carcinoma of lung); assay: Growth of NCI-H292, cell count; type: cell-based; conditions: NCI-H292, 7 days, media replaced every 24 hour
Protocol: FIG. 19. The effect of Antileukinate on growth of NCI-H292 (squamous cell carcinoma of lung). NCI-H292 cells were plated at a density of 5×10^3 cells in 24-well plate with growth medium. After the cells adhered to the plate, supernatants were aspirated and culture media containing various concentrations of Antileukinate were added to the wells. The media was replaced every 24 hour and the cells were cultured for 7 days. After incubation, cells were detatched with trypsin-EDTA and the cell number was counted using a hemocytometer. Cell number was decreased in a dose-dependent manner and there are significant differences from control at concentrations greater than, or equal to 50 μM of Antileukinate (p<0.05).

[5] = system: Hep G2 liver cancer cells; assay: Cell growth assay, Hep G2; type: cell-based; conditions: 72 hr
Protocol: FIG. 15C. The effect of Antileukinate on the growth of melanoma cells. Melanoma cell lines and a control liver cancer cell line (2×10^4 cells/well) in 500 μl were cultured in a 24 well tissue culture plate in the presence of various concentrations of Antileukinate for 3 d. The culture media were changed to fresh media containing the same concentration of Antileukinate every 24 hr during the incubation period. After incubation, the cells were collected and the cell number was counted using a hemocytometer. Liver cancer cell line, Hep G2. Analysis of variance was used for multiple comparison.
The cell lines (2×10^4 cells/well) in 500 μl cell culture medium were grown in 24 well tissue culture plates. After the cells adhered to the plate, the supernatants were aspirated and 500 μl of media containing various concentrations of Antileukinate were added to the wells. The cells were cultured for period indicated in the text. The culture media were changed to fresh media every 24 hr. After incubation, the cells were detached with trypsin-EDTA solution (Life Technologies Inc., Gaithersburg, Md., containing 0.05% of trypsin and 0.53 mM of EDTA in Hanks Balanced Salt Solution without Ca^2+ and Mg^2+) and the cell number was counted using a hemocytometer.

[6] = system: leukotriene B4-stimulated neutrophil enzyme release; assay: β-glucuronidase release from neutrophils stimulated by leukotriene B4; type: cell-based, human; conditions: 100 nM leukotriene B4
Protocol: as §1, §2

neutrophils [7] = assay: Checkerboard analysis for chemotactic activity of the peptide itself; type: cell-based, human
Protocol: Chemotaxis was performed using the leading front method as described by Zigmond and Hirsh (1973). IL-8 or controls were placed in the lower well of a Boyden chamber. A five micron pore size, 100 μm. thick cellulose nitrate filter (Sartorius Filter,. Inc., San Francisco, Calif.) was placed on the surface and the chamber was then assembled. A 200 μl aliquot of the neutrophil preparation (1×10^6 cells/ml) in RPMI-1640 media containing 1% BSA was added to the top of the filter and incubated at 37° C. for 30 min. The filter was then fixed, stained and mounted on a glass microscope slide. The leading front was determined by the position of the leading two cells. The distance that the leading two cells had moved through the filter was measured for six fields on each filter. The measurements were made with four filters for each set of conditions.

[8] = system: lung adenocarcinoma cell line NCI-H441; assay: Tumor cell growth, NCI-H441; type: cell-based
[9] = Hep G2 culture, 100 μM peptide
Protocol: Analysis for the breakdown of Antileukinate in the culture of Hep G2 cells. A total concentration of tritium labeled and unlabeled Antileukinate of 100 μM, was added to the culture of Hep G2 cells. Aliquots of medium were removed at different times and chromatographed on an HPLC Bondapak C18 reversed phase column. The peptides were eluted using a gradient from 0.1% TFA to 80% acetonitrile in 0.1% TFA. One milliliter fractions were collected and measured for their radioactivity using a liquid scintillation counter. The chromatographs show the elution volume of the radioactivity at different times after addition to the cells.
Hs 294T and Hep G2 cells, 2×10^4 cell/well, were cultured in 24 well tissue culture plates for 24 hr. Then the culture media were replaced with media containing tritiated Antileukinate, 0.2 μCi, mixed with 100 μM unlabeled peptide in each well. The cells were then cultured for the indicated periods. The supernatants were collected and stored at −70° C. until use. The breakdown of Antileukinate during the cell culture was analyzed on high performance liquid chromatography (HPLC) using an analytical C18 reversed phase column (Waters Co., New Bedford, Mass.). […] One milliliter fractions were collected and measured for their radioactivity content using a liquid scintillation counter.

[10] = system: adenocarcinoma from stomach AGS; assay: Tumor cell growth, AGS; type: cell-based
[11] = peptide below filter 1.0 μM, above filter 5.0 μM
[12] = peptide below filter 1.0 μM, above filter 12.5 μM
[13] = peptide below filter 1.0 μM, above filter 25.0 μM
[14] = peptide below filter 5.0 μM, above filter 1.0 μM
[15] = peptide below filter 5.0 μM, above filter 12.5 μM
[16] = peptide below filter 5.0 μM, above filter 25.0 μM
[17] = peptide below filter 12.5 μM, above filter 1.0 μM
[18] = peptide below filter 12.5 μM, above filter 5.0 μM
[19] = peptide below filter 12.5 μM, above filter 25.0 μM
[20] = peptide below filter 25.0 μM, above filter 1.0 μM
[21] = peptide below filter 25.0 μM, above filter 5.0 μM
[22] = peptide below filter 25.0 μM, above filter 12.5 μM

## RRWWCR [Ac-RRWWCR-NH2]
Neutrophils [1]
  stimulation of β-glucuronidase release by the peptide itself: did not stimulate β-glucuronidase release
[2]
  effect on cell growth: inhibits growth
C8161 melanoma cells
  effect on cell growth: suppresses the growth
IL-8
  interaction of the peptide with IL-8: does not interact with IL-8
WM115 melanoma cells
  effect on cell growth: suppresses the growth
[3]
  effect on cell growth: inhibits growth
[4]
  concentrations with significant difference in cell number from control (p<0.05): ≥ 50 µM
[5]
  effect on growth of Hep G2 liver cancer cells: did not affect the growth
[6]
  effect on enzyme release stimulated by leukotriene B4: did not affect the enzyme release
Neutrophils [7]
  chemotactic activity of the peptide (checkerboard analysis): not chemotactic for neutrophils
Neutrophils [7]; control studies, media alone
  effect on chemokinesis of neutrophils: had no effect on chemokinesis
Neutrophils [7]; peptide below filter 1.0 μM, above filter 1.0 μM
  migration, mean ± SD of experimental observations: 27.8 ± 5.5
Neutrophils [7]; [11]
  calculated migration expected if cells responded to absolute concentration, not gradient: 29.1
  migration, mean ± SD of experimental observations: 28.0 ± 4.7
Neutrophils [7]; [12]
  calculated migration expected if cells responded to absolute concentration, not gradient: 24.2
  migration, mean ± SD of experimental observations: 25.6 ± 4.0
Neutrophils [7]; [13]
  calculated migration expected if cells responded to absolute concentration, not gradient: 24.3
  migration, mean ± SD of experimental observations: 26.7 ± 6.3
Neutrophils [7]; [14]
  calculated migration expected if cells responded to absolute concentration, not gradient: 28.0
  migration, mean ± SD of experimental observations: 29.6 ± 6.3
Neutrophils [7]; peptide below filter 5.0 μM, above filter 5.0 μM
  migration, mean ± SD of experimental observations: 29.3 ± 7.2
Neutrophils [7]; [15]
  calculated migration expected if cells responded to absolute concentration, not gradient: 23.7
  migration, mean ± SD of experimental observations: 24.2 ± 5.4
Neutrophils [7]; [16]
  calculated migration expected if cells responded to absolute concentration, not gradient: 24.4
  migration, mean ± SD of experimental observations: 25.9 ± 6.7
Neutrophils [7]; [17]
  calculated migration expected if cells responded to absolute concentration, not gradient: 28.4
  migration, mean ± SD of experimental observations: 27.0 ± 5.5
Neutrophils [7]; [18]
  calculated migration expected if cells responded to absolute concentration, not gradient: 28.5
  migration, mean ± SD of experimental observations: 27.5 ± 4.8
Neutrophils [7]; peptide below filter 12.5 μM, above filter 12.5 μM
  migration, mean ± SD of experimental observations: 22.9 ± 5.9
Neutrophils [7]; [19]
  calculated migration expected if cells responded to absolute concentration, not gradient: 24.5
  migration, mean ± SD of experimental observations: 24.8 ± 5.8
Neutrophils [7]; [20]
  calculated migration expected if cells responded to absolute concentration, not gradient: 28.4
  migration, mean ± SD of experimental observations: 30.9 ± 4.7
Neutrophils [7]; [21]
  calculated migration expected if cells responded to absolute concentration, not gradient: 27.1
  migration, mean ± SD of experimental observations: 27.5 ± 4.9
Neutrophils [7]; [22]
  calculated migration expected if cells responded to absolute concentration, not gradient: 23.1
  migration, mean ± SD of experimental observations: 27.9 ± 4.8
Neutrophils [7]; peptide below filter 25.0 μM, above filter 25.0 μM
  migration, mean ± SD of experimental observations: 24.7 ± 3.8
[8]
  effect on cell growth: inhibits growth
[9]
  time within which the peptide is substantially eliminated from the culture: ≤ 24 h
[9]; after 24 hr
  decrease of the major radioactivity peak (intact peptide): more than 85%
[10]
  effect on cell growth: inhibits growth
